Assay results reported in patent US8247211B2, “Glycopeptide antibiotics” (American Cyanamid Company, priority 2001, dated 2012).
≈ marks a conversion by molar mass, not a printed value.

Tests used:
Test in all cases: In vitro antibacterial evaluation: minimum inhibitory concentration (MIC), broth dilution method
Format in all cases: cell-based
Escherichia coli = conditions: 18 hours at 35° C.
How it was run: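 Susceptibility determined by NCCLS-recommended broth dilution (M7-A2), Muller-Hinton II […]. Concentration span 64-0.06 μg/mL, inoculum 5×10^5 CFU/mL. Isolates include strains resistant to methicillin, penicillin and/or vancomycin.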

Enterococcus sp. = conditions: 18 hours at 35° C.
How it was run: (§1)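 MIC by broth dilution in Mueller-Hinton II medium following NCCLS M7-A2. Inoculum was 5×10^5 CFU/mL and antibiotic was tested over 64-0.06 μg/mL. Gram-positive panel included clinical isolates resistant to methicillin, penicillin and/or vancomycin.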

Streptococcus sp. = conditions: 18 hours at 35° C.
How it was run: as §1

Staphylococcus sp. = system: Staphylococcus sp.
How it was run: as §1

[1] = broth dilution, inoculum 5×10^5 CFU/mL

MIC Escherichia coli (ATCC 25922) (Escherichia coli; Escherichia coli (ATCC 25922)): 64 µg/mL (≈ 44.8 µM)
MIC Escherichia coli (GC 4559) (Escherichia coli; Escherichia coli (GC 4559)): 64 µg/mL (≈ 44.8 µM)
MIC Escherichia coli (GC 4560) (Escherichia coli; Escherichia coli (GC 4560)): 2 µg/mL (≈ 1.4 µM)
MIC Enterococcus avium (GC 4558) (Enterococcus sp.; Enterococcus avium (GC 4558)): 2 µg/mL (≈ 1.4 µM)
MIC Enterococcus faecalis (ATCC 29212) (Enterococcus sp.; Enterococcus faecalis (ATCC 29212)): 2 µg/mL (≈ 1.4 µM)
MIC Enterococcus faecalis (GC 2242) (Enterococcus sp.; Enterococcus faecalis (GC 2242)): 2 µg/mL (≈ 1.4 µM)
MIC Enterococcus faecalis (GC 2691) (Enterococcus sp.; Enterococcus faecalis (GC 2691)): 2 µg/mL (≈ 1.4 µM)
MIC Enterococcus faecalis (GC 3059) (Enterococcus sp.; Enterococcus faecalis (GC 3059)): 2 µg/mL (≈ 1.4 µM)
MIC Enterococcus faecalis (GC 4552) (Enterococcus sp.; Enterococcus faecalis (GC 4552)): 2 µg/mL (≈ 1.4 µM)
MIC Enterococcus faecalis (GC 4553) (Enterococcus sp.; Enterococcus faecalis (GC 4553)): 2 µg/mL (≈ 1.4 µM)
MIC Enterococcus faecalis (GC 4554) (Enterococcus sp.; Enterococcus faecalis (GC 4554)): 2 µg/mL (≈ 1.4 µM)
MIC Enterococcus faecalis (GC 6189) (Enterococcus sp.; Enterococcus faecalis (GC 6189)): 2 µg/mL (≈ 1.4 µM)
MIC Enterococcus faecium (GC 2243) (Enterococcus sp.; Enterococcus faecium (GC 2243)): 1 µg/mL (≈ 0.7 µM)
MIC Enterococcus faecium (GC 4556) (Enterococcus sp.; Enterococcus faecium (GC 4556)): 2 µg/mL (≈ 1.4 µM)
MIC Enterococcus faecium (GC 4557) (Enterococcus sp.; Enterococcus faecium (GC 4557)): 2 µg/mL (≈ 1.4 µM)
MIC Enterococcus avium (GC 4558) (Enterococcus sp.; [1]): 2 µg/mL (≈ 1.4 µM)
MIC Enterococcus faecalis (ATCC 29212) (Enterococcus sp.; [1]): 2 µg/mL (≈ 1.4 µM)
MIC Enterococcus faecalis (GC 2242) (Enterococcus sp.; [1]): 2 µg/mL (≈ 1.4 µM)
MIC Enterococcus faecalis (GC 2691) (Enterococcus sp.; [1]): 2 µg/mL (≈ 1.4 µM)
MIC Enterococcus faecalis (GC 3059) (Enterococcus sp.; [1]): 2 µg/mL (≈ 1.4 µM)
MIC Enterococcus faecalis (GC 4552) (Enterococcus sp.; [1]): 2 µg/mL (≈ 1.4 µM)
MIC Enterococcus faecalis (GC 4553) (Enterococcus sp.; [1]): 2 µg/mL (≈ 1.4 µM)
MIC Enterococcus faecalis (GC 4554) (Enterococcus sp.; [1]): 2 µg/mL (≈ 1.4 µM)
MIC Enterococcus faecalis (GC 6189) (Enterococcus sp.; [1]): 2 µg/mL (≈ 1.4 µM)
MIC Enterococcus faecium (GC 2243) (Enterococcus sp.; [1]): 1 µg/mL (≈ 0.7 µM)
MIC Enterococcus faecium (GC 4556) (Enterococcus sp.; [1]): 2 µg/mL (≈ 1.4 µM)
MIC Enterococcus faecium (GC 4557) (Enterococcus sp.; [1]): 2 µg/mL (≈ 1.4 µM)
MIC Streptococcus agalactiae (GC 4564) (Streptococcus sp.; Streptococcus agalactiae (GC 4564)): <0.12 µg/mL
MIC Streptococcus pneumoniae (ATCC 6301) (Streptococcus sp.; Streptococcus pneumoniae (ATCC 6301)): <0.12 µg/mL
MIC Streptococcus pneumoniae (GC 1894) (Streptococcus sp.; Streptococcus pneumoniae (GC 1894)): <0.12 µg/mL
MIC Streptococcus pneumoniae (GC 4565) (Streptococcus sp.; Streptococcus pneumoniae (GC 4565)): <0.12 µg/mL
MIC Streptococcus pyogenes (GC 4563) (Streptococcus sp.; Streptococcus pyogenes (GC 4563)): <0.12 µg/mL
MIC Streptococcus agalactiae (GC 4564) (Streptococcus sp.; [1]): <0.12 µg/mL
MIC Streptococcus pneumoniae (ATCC 6301) (Streptococcus sp.; [1]): <0.12 µg/mL
MIC Streptococcus pneumoniae (GC 1894) (Streptococcus sp.; [1]): <0.12 µg/mL
MIC Streptococcus pneumoniae (GC 4565) (Streptococcus sp.; [1]): <0.12 µg/mL
MIC Streptococcus pyogenes (GC 4563) (Streptococcus sp.; [1]): <0.12 µg/mL
MIC Staphylococcus aureus (ATCC 29213) (Staphylococcus sp.; strain ATCC 29213): 2 µg/mL (≈ 1.4 µM)
MIC Staphylococcus aureus (GC 1131) (Staphylococcus sp.; strain GC 1131): 1 µg/mL (≈ 0.7 µM)
MIC Staphylococcus aureus (GC 3051) (Staphylococcus sp.; strain GC 3051): 32 µg/mL (≈ 22.4 µM)
MIC Staphylococcus aureus (GC 3053) (Staphylococcus sp.; strain GC 3053): 2 µg/mL (≈ 1.4 µM)
MIC Staphylococcus aureus (GC 4541) (Staphylococcus sp.; strain GC 4541): 2 µg/mL (≈ 1.4 µM)
MIC Staphylococcus aureus (GC 4542) (Staphylococcus sp.; strain GC 4542): 1 µg/mL (≈ 0.7 µM)
MIC Staphylococcus aureus-SMITH (GC 4543) (Staphylococcus sp.; strain GC 4543): 0.5 µg/mL (≈ 0.35 µM)
MIC Staphylococcus aureus (GC 4544) (Staphylococcus sp.; strain GC 4544): 1 µg/mL (≈ 0.7 µM)
MIC Staphylococcus aureus (GC 4545) (Staphylococcus sp.; strain GC 4545): 2 µg/mL (≈ 1.4 µM)
MIC Coagulase Negative Staphylococcus (GC 4547) (Staphylococcus sp.; strain GC 4547): 1 µg/mL (≈ 0.7 µM)
MIC Coagulase Negative Staphylococcus (GC 4548) (Staphylococcus sp.; strain GC 4548): 1 µg/mL (≈ 0.7 µM)
MIC Coagulase Negative Staphylococcus (GC 4549) (Staphylococcus sp.; strain GC 4549): 0.5 µg/mL (≈ 0.35 µM)
MIC Coagulase Negative Staphylococcus (GC 4551) (Staphylococcus sp.; strain GC 4551): 1 µg/mL (≈ 0.7 µM)
SMILES: CC(c1ccccc1)C1NC(=O)CNC(=O)C(CO)NC(=O)C(C(O)C2CNC(=N)N2C2OC(CO)C(O)C(O)C2O)NC(=O)C(C(O)C2CNC(=N)N2)NC(=O)C(Cc2ccc(OC3OC(CO)C(OC4OC5COC6(CC7CCC6(C)C7(C)C)OC5C(O)C4O)C(O)C3O)cc2)NC1=O (stereo not drawn) [Example 214, Cyclo[glycyl-β-methylphenylalanyl-O-[4-O-[4,6-O-(1,7,7-trimethylbicyclo[2.2.1]hept-2-ylidene)hexopyranosyl]hexopyranosyl]tyrosyl-3-(2-iminoimidazolidin-4-yl)seryl-3-(3-hexopyranosyl-2-iminoimidazolidin-4-yl)serylseryl]]
MIC Staphylococcus haemolyticus (GC 4546) (Staphylococcus sp.; strain GC 4546): 1 µg/mL (≈ 0.7 µM)
